Laboratory results: US5783558A, “Parathormone fragments, their preparation and medicaments containing these” (Boehringer Mannheim GmbH, priority 1992, dated 1998)

Assays:
rats = test: Ca retention (Ca balance) in growing rats; type: in vivo, rat; parameters: Ca retention (mg per day) average value: dose or concentration left out as unconfirmed; details: for Ca retention (mg per day) average value / Ca retention % increase: male CD rats, daily subcutaneous, 10 days; for Ca retention (mg per day) average value: equimolar doses, balance measured during last 3 days; for Ca retention in words: rats, compared with hPTH(1-n), n=34, 37, 38; for Ca retention % increase: versus control
Protocol: Determination of the action of various PTH fragments on the Ca retention in the case of rats.
The measurement of the Ca balance in growing rats is a suitable model to test in vivo the effectiveness of a systemically administered substance on the bone metabolism. In the case of the Ca balance, the Ca flows in and out of the body are measured and the Ca retention (balance) calculated therefrom. It is thereby taken into account that the bones store about 99% of the body calcium, whereas the plasma calcium level remains constant. The amount of calcium retained in the body from the nutrition can, therefore, be regarded as proportional to the growth in the bone mass.
As experimental animals for the investigations, there served male CD rats which, at the beginning of the experiment, were 10 weeks old and weighed 250-300 g. The experimental animals were kept individually in commercially-available metabolic cages. An automatic separation of faeces and urine took place in the metabolic cages. Both fractions were collected quantitatively in collection containers and could be analyzed separately from one another.
As feed there served a standard diet for rats of meal-like consistency which was pasted with aqua dist. in the ratio of 1:1. The daily provided amount of feed was so adapted to the feed requirement of the animals in the sense of a so-called "group feedings" that they were completely eaten by all animals. The daily food ration amounted to 20 g (wet feed). Aqua dist. was offerred to the animals ad libitum.
All test substances were injected daily subcutaneously in equimolar doses (corresponding to […] hPTH(1-34)×kg^-1 ×day^-1), over 10 days. Of this, the first 7 days served for the adaptation of the animals, whereas the measurement of the Ca balance took place during the last 3 days.
The Ca intake was calculated via the amount of feed taken up and the experimentally determined Ca content of the feed. For this purpose, from the feed batch of each day, an aliquot was dried to constant weight and the water content determined from the comparison of wet and dry weight. Subsequently, 2×500 mg of the dried feed was digested with a laboratory microwave apparatus in conc. acids as follows: To 500 mg of dried feed were successively pipetted 3 ml HNO3 (conc.), 1 ml HCl (conc.) and 1 ml H2 O2 (30%). After the subsidence of the spontaneous oxidation reaction (foaming up), there followed the digestion pressure-controlled in closed digestion containers of Teflon PFA. The pressure/time steps were thereby successively following passed through: 40 psi (276 kpa), 5 min; 80 psi (552 kPa), 5 min; 150 psi ([…]); 10 min. To the cooled digest were then again added 2 ml H 2 O2 (30%) in order to test the completeness of the digestion reaction (no more foaming up).The digest was made up with a 1% lanthanum nitrate solution (v/v in 0.3% HCl) ad 100 ml. For the measurement of the Ca content on a flame atom absorption spectrometer (AAS), the samples were again dilute 1:100 with 1% lanthanum nitrate solution. The Ca intake was then calculated from the taken-up amount of feed and the measured water and Ca content.
The Ca loss via the faeces was then determined analogously to the Ca intake: Determination of the water content, acidic digestion in the microwave apparatus under the same conditions and subsequent measurement of the Ca content on the AAS.
In the collection container for the urine was placed 2 ml 10% HCl in order to prevent a precipitation of urate. After the end of the experiment, the urine volume was determined by weighing and subsequently an aliquot thereof diluted with 1% lanthanum nitrate solution (v/v in 0.3% HCl) in the ratio of 1:100. The determination of the Ca content of the samples took place on the AAS.

sterna organ cultures [1] = test: Mitogeneity on sterna organ cultures; type: cell-based; details: n=4
Protocol: Mitogeneity on sterna organ cultures
The mitogeneity of the new fragments was tested in organ cultures from sterna and it was ascertained that this activity was more strongly marked than in the case of the known fragments hPTH(1-34) and hPTH(1-38)(cf. Tab. 2).

ROS 17/2.8 cells = test: DNA synthesis capacity on ROS 17/2.8 cells ([3H]-thymidine incorporation); type: cell-based; details: for DNA synthesis E/C / [^3 H]-thymidine incorporation (cpm): hPTH(1-X) 100 nM, ROS/2.8 cells
Protocol: DNA synthesis capacity on ROS 17/2.8 cells
The DNA synthesis capacity was measured on ROS 17/2.8 cells. […] Tab. 3: DNA synthesis hPTH(1-X), 100 nM, ROS/2.8 cells

sterna organ cultures [2] = test: cAMP stimulation on sterna organ cultures; type: cell-based; details: for pMol cAMP: 100 nm inductor, n=4; for Induction of cAMP formation in words: compared with PTH(1-34)
Protocol: (§1) In organ cultures from sterna, as well as on membrane fractions from pigs' kidneys was measured the induction of the cAMP formation by various PTH peptides. […] This is of importance since the catabolic, i.e. calcium-mobilising properties of PTH are, as is known, involved with an increase of the cAMP (Schluter et al. (1989), J. Biol. Chem. 264, 19:11087-11092; Lowik et al., (1988), Calcif Tissue Int. 43:7-18). These findings are plausible and, therefore, support the above-mentioned findings which show an increase of the anabolic properties of the peptide in the case of a chain length between 35 and 36 amino acids.

[3] = test system: membrane fractions from pigs' kidneys; test: cAMP stimulation on porcine kidney membrane; type: biochemical, pig; details: for Induction of cAMP formation in words: membrane fractions from pigs' kidneys, compared with PTH(1-34); for pMol cAMP/mg protein ± SEM: porcine kidney membrane, n=3
Protocol: as §1

UMR 106 cells = test: DNA synthesis capacity of PTH(3-X) fragments on UMR 106 cells ([3H]-thymidine incorporation); type: cell-based
Text: DNA synthesis capacity on PTH-(3-X) fragments
An increased DNA synthesis capacity on UMR 106 cells was also observed with fragments, the N-terminus of which was shortened by two amino acids. An action maximum was again present when the chain length lay between 34 and 36 amino acids (cf. Tab. 6). This finding is surprising since it is known that a deletion of the amino acids +1 or +1 and +2 leads to the loss of the cAMP induction, combined with the loss of the calcium-mobilising properties of the PTH. An anabolic (mitogenic) activity of N-terminal shortened PTH fragments has hitherto not been described.

| Substance | Ca retention (mg per day) average value (rats) [mg per day] | Ca retention in words (rats) | Ca retention % increase (rats) [%] | Mitogeneity E/C +/- SEM (sterna organ cultures [1]) | DNA synthesis E/C (ROS 17/2.8 cells) | [^3 H]-thymidine incorporation (cpm) (ROS 17/2.8 cells) | pMol cAMP (sterna organ cultures [2]) [pMol] | Induction of cAMP formation in words (sterna organ cultures [2]) | Induction of cAMP formation in words [3] | pMol cAMP/mg protein ± SEM [3] [pMol cAMP/mg protein] | DNA synthesis E/C (UMR 106 cells; PTH(3-X) 100 nM) | [^3 H]-thymidine incorporation (cpm) (UMR 106 cells; PTH(3-X) 100 nM) | DNA synthesis E/C (UMR 106 cells; PTH(3-X) 300 nM) | [^3 H]-thymidine incorporation (UMR 106 cells; PTH(3-X) 300 nM) | DNA synthesis capacity in words (ROS 17/2.8 cells; ROS 17/2.8 cells, compared with other fragments) |
| --- | --- | --- | --- | --- | --- | --- | --- | --- | --- | --- | --- | --- | --- | --- | --- |
| Ser-Val-Ser-Glu-Ile-Gln-Leu-Met-His-Asn-Leu-Gly-Lys-His-Leu-Asn-Ser-Met-Glu-Arg-Val-Glu-Trp-Leu-Arg-Lys-Lys-Leu-Gln-Asp-Val-His-Asn-Phe-Val-Ala (SVSEIQLMHNLGKHLNSMERVEWLRKKLQDVHNFVA) [hPTH(1-36)] | 110.5 | higher Ca retention | 123 | 3.37 +/- 0.58 | 3.2 ± 0.37 | 2,136 ± 246 cpm | 17.6 | decreased | decreased | 44.6 ± 1.8 | – | – | – | – | – |
| PTH (3-38): PTH fragment, N-terminus shortened by two amino acids, positions 3-38 (SEIQLMHNLGKHLNSMERVEWLRKKLQDVHNFVALG; Parathyroid hormone; UniProt P01270 34-69, looked up, fragment) | – | – | – | – | – | – | – | – | – | – | 2.1 ± 0.13 | 1,905 ± 159 cpm | 3.8 ± 0.43 | 3,701 ± 414 | – |
| Ser-Val-Ser-Glu-Ile-Gln-Leu-Met-His-Asn-Leu-Gly-Lys-His-Leu-Asn-Ser-Met-Glu-Arg-Val-Glu-Trp-Leu-Arg-Lys-Lys-Leu-Gln-Asp-Val-His-Asn-Phe-Val (SVSEIQLMHNLGKHLNSMERVEWLRKKLQDVHNFV) [hPTH(1-35)] | 108.6 | higher Ca retention | 119 | 3.13 +/- 0.57 | 4.1 ± 0.43 | 2,686 ± 282 cpm | 18.2 | decreased | decreased | 82.4 ± 0.4 | – | – | – | – | more strongly increased |
| hPTH(1-37): known human parathyroid hormone fragment, amino acids 1-37 (WO 91/06564) (SVSEIQLMHNLGKHLNSMERVEWLRKKLQDVHNFVAL; Parathyroid hormone; UniProt P01270 32-68, looked up, fragment) [reference compound] | 96.0 | – | 94 | – | 3.1 ± 0.38 | 2,021 ± 251 cpm | – | – | – | – | – | – | – | – | – |
| PTH (3-37): PTH fragment, N-terminus shortened by two amino acids, positions 3-37 (SEIQLMHNLGKHLNSMERVEWLRKKLQDVHNFVAL; Parathyroid hormone; UniProt P01270 34-68, looked up, fragment) | – | – | – | – | – | – | – | – | – | – | 2.3 ± 0.06 | 2,161 ± 74 cpm | 4.1 ± 0.28 | 3,962 ± 268 | – |
| hPTH(1-38): known human parathyroid hormone fragment, amino acids 1-38, state of the art (SVSEIQLMHNLGKHLNSMERVEWLRKKLQDVHNFVALG; Parathyroid hormone; UniProt P01270 32-69, looked up, fragment) [reference compound] | 91.8 | – | 85 | 2.96 +/- 0.30 | – | – | – | – | – | – | – | – | – | – | – |
| PTH (3-34): PTH fragment, N-terminus shortened by two amino acids, positions 3-34 (SEIQLMHNLGKHLNSMERVEWLRKKLQDVHNF; Parathyroid hormone; UniProt P01270 34-65, looked up, fragment) | – | – | – | – | – | – | – | – | – | – | 1.9 ± 0.12 | 1,748 ± 150 cpm | 3.6 ± 0.31 | 3,516 ± 297 | – |
